Experimental data as given in patent US11434242B2, “Dopamine-b-hydroxylase inhibitors” (BIAL-PORTELA & Cª, S.A., priority 2017, dated 2022).
Marks after values point to notes of the source that are not given here.

Biological target: T1, Dopamine beta hydroxylase (Homo sapiens, UniProt P09172)
T1 construct: 125 μl of plasma; tissue Instituto Português do Sangue Transplantação; host or cells: human plasma from healthy donors
T1 sequence (P09172 40-617 limits assumed): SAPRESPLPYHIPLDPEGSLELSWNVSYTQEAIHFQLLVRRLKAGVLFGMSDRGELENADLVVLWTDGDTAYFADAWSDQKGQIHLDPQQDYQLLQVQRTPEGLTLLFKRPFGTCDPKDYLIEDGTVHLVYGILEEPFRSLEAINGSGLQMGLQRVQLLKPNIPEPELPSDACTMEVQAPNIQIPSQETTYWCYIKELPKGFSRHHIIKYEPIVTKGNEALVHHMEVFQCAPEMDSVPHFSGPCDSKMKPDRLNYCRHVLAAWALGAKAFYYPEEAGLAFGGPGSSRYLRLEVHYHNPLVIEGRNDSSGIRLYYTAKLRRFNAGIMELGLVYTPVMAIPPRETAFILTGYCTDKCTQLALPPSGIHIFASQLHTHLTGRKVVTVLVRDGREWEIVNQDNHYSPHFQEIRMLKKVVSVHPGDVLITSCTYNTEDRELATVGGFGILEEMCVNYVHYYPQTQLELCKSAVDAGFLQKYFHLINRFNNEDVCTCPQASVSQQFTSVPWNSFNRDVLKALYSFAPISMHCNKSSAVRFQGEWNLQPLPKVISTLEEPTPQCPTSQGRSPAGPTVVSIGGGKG
Assay: Dopamine beta hydroxylase activity in human plasma
Assay type: biochemical
How it was run: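 Octopamine production from tyramine over 45 min at 37° C, measured photometrically at 330 nm after SCX extraction and periodate oxidation against an octopamine standard curve, indicates plasma DβH activity. Compounds tested at final 10, 100 and 1000 nM in human plasma, pH 5.0 cofactor buffer, 10 min preincubation; results as % of control.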

Row | SMILES | Plasma (0.01 μM), activity in % of control (inhibitor 0.01 μM) | Plasma (0.1 μM), activity in % of control (inhibitor 0.1 μM) | Plasma (0.01 μM), activity in % of control, re-test (asterisked) (inhibitor 0.01 μM, re-tested under the same experimental conditions, asterisked data believed to be correct) | Plasma (0.1 μM), activity in % of control, re-test (asterisked) (inhibitor 0.1 μM, re-tested under the same experimental conditions, asterisked data believed to be correct)
1 | Cn1c(CC(=O)N[C@@H]2CCOC2)c2n(c1=S)C[C@@H](c1cc(Cl)ccc1F)C2 [Example 246, 2-((R)-6-(5-chloro-2-fluorophenyl)-2-methyl-3-thioxo-2,5,6,7-tetrahydro-3H-pyrrolo[1,2-c]imidazol-1-yl)-N—((R)-tetrahydrofuran-3-yl)acetamide] | 115.2 % of control | 80.3 % of control | – | –
2 | COC[C@@H]1CCCN1C(=O)Cc1c2n(c(=S)n1C)C[C@@H](c1c(F)ccc(F)c1F)C2 [Example 247, 1-((S)-2-(methoxymethyl)pyrrolidin-1-yl)-2-((R)-2-methyl-3-thioxo-6-(2,3,6-trifluorophenyl)-2,5,6,7-tetrahydro-3H-pyrrolo[1,2-c]imidazol-1-yl)ethan-1-one] | 81.7 % of control | 35.9 % of control | – | –
3 | Cn1c(CC(=O)N2CCC[C@H]2C(F)(F)F)c2n(c1=S)C[C@@H](c1c(F)ccc(F)c1F)C2 [Example 248, 2-((R)-2-methyl-3-thioxo-6-(2,3,6-trifluorophenyl)-2,5,6,7-tetrahydro-3H-pyrrolo[1,2-c]imidazol-1-yl)-1-((S)-2-(trifluoromethyl)pyrrolidin-1-yl)ethan-1-one] | 98.2 % of control | 51.8 % of control | – | –
4 | Cn1c(CC(N)=O)c2n(c1=S)C[C@H](c1c(F)ccc(Cl)c1F)C2 [Example 249, (S)-2-(6-(3-chloro-2,6-difluorophenyl)-2-methyl-3-thioxo-2,5,6,7-tetrahydro-3H-pyrrolo[1,2-c]imidazol-1-yl)acetamide] | 96.0 % of control | 40.9 % of control | – | –
5 | Cn1c(CC(=O)N[C@@H]2CCOC2)c2n(c1=S)C[C@H](c1c(F)ccc(Cl)c1F)C2 [Example 250, 2-((S)-6-(3-chloro-2,6-difluorophenyl)-2-methyl-3-thioxo-2,5,6,7-tetrahydro-3H-pyrrolo[1,2-c]imidazol-1-yl)-N—((R)-tetrahydrofuran-3-yl)acetamide] | 46.1 % of control | 7.3 % of control | – | –
6 | Cn1c(CC(=O)N[C@@H]2CCOC2)c2n(c1=S)C[C@H](c1cc(Cl)ccc1F)C2 [Example 251, 2-((S)-6-(5-chloro-2-fluorophenyl)-2-methyl-3-thioxo-2,5,6,7-tetrahydro-3H-pyrrolo[1,2-c]imidazol-1-yl)-N—((R)-tetrahydrofuran-3-yl)acetamide] | 80.0 % of control | 36.0 % of control | – | –
7 | CN(C(=O)Cc1c2n(c(=S)n1C)C[C@H](c1c(F)ccc(Br)c1F)C2)C1CCOC1 (stereo partly drawn) [Example 252, 2-((S)-6-(3-bromo-2,6-difluorophenyl)-2-methyl-3-thioxo-2,5,6,7-tetrahydro-3H-pyrrolo[1,2-c]imidazol-1-yl)-N-methyl-N-(tetrahydrofuran-3-yl)acetamide] | 82.2 % of control | 54.8 % of control | 46.0* % of control | 6.7* % of control
8 | Cn1c(CC(=O)NCC#N)c2n(c1=S)C[C@H](c1c(F)ccc(Br)c1F)C2 [Example 253, (S)-2-(6-(3-bromo-2,6-difluorophenyl)-2-methyl-3-thioxo-2,5,6,7-tetrahydro-3H-pyrrolo[1,2-c]imidazol-1-yl)-N-(cyanomethyl)acetamide] | 63.4 % of control | 24.5 % of control | – | –
9 | Cn1c(CC(=O)NC2(C#N)CC2)c2n(c1=S)C[C@@H](c1c(F)ccc(F)c1F)C2 [Example 254, (R)—N-(1-cyanocyclopropyl)-2-(2-methyl-3-thioxo-6-(2,3,6-trifluorophenyl)-2,5,6,7-tetrahydro-3H-pyrrolo[1,2-c]imidazol-1-yl)acetamide] | 81.4 % of control | 62.2 % of control | – | –
10 | Cn1c(CC(=O)N[C@@H]2CCCOC2)c2n(c1=S)C[C@@H](c1c(F)ccc(F)c1F)C2 [Example 255, 2-((R)-2-methyl-3-thioxo-6-(2,3,6-trifluorophenyl)-2,5,6,7-tetrahydro-3H-pyrrolo[1,2-c]imidazol-1-yl)-N—((R)-tetrahydro-2H-pyran-3-yl)acetamide] | 71.8 % of control | 24.6 % of control | – | –
11 | Cl.Cn1c(CCN2CCOCC2)c2n(c1=S)C[C@@H](c1c(F)c(F)cc(F)c1F)C2 [Example 257, (R)-2-methyl-1-(2-morpholinoethyl)-6-(2,3,5,6-tetrafluorophenyl)-2,5,6,7-tetrahydro-3H-pyrrolo[1,2-c]imidazole-3-thione Hydrochloride] | 105.9 % of control | 92.4 % of control | – | –
12 | Cn1c(CC(=O)Nc2ccccn2)c2n(c1=S)C[C@H](c1c(F)ccc(Cl)c1F)C2 [Example 258, (S)-2-(6-(3-chloro-2,6-difluorophenyl)-2-methyl-3-thioxo-3,5,6,7-tetrahydro-2H-pyrrolo[1,2-c]imidazol-1-yl)-N-(pyridin-2-yl)acetamide] | 84.2 % of control | 21.3 % of control | – | –
13 | Cn1c(CCc2cccnc2)c2n(c1=S)C[C@@H](c1c(F)c(F)cc(F)c1F)C2 [Example 259, (R)-2-methyl-1-(2-(pyridin-3-yl)ethyl)-6-(2,3,5,6-tetrafluorophenyl)-6,7-dihydro-2H-pyrrolo[1,2-c]imidazole-3(5H)-thione] | 90.8 % of control | 76.1 % of control | – | –
14 | Cn1c(CCC(=O)O)c2n(c1=S)C[C@@H](c1c(F)c(F)cc(F)c1F)C2 [Example 260, (R)-3-(2-methyl-6-(2,3,5,6-tetrafluorophenyl)-3-thioxo-2,5,6,7-tetrahydro-3H-pyrrolo[1,2-c]imidazol-1-yl)propanoic Acid] | 84.1 % of control | 26.5 % of control | – | –
15 | Cn1c(CCC(=O)N2CCCC2)c2n(c1=S)C[C@@H](c1c(F)c(F)cc(F)c1F)C2 [Example 261, (R)-3-(2-methyl-6-(2,3,5,6-tetrafluorophenyl)-3-thioxo-2,5,6,7-tetrahydro-3H-pyrrolo[1,2-c]imidazol-1-yl)-1-(pyrrolidin-1-yl)propan-1-one] | 86.2 % of control | 31.8 % of control | – | –
16 | Cn1c(CCC(N)=O)c2n(c1=S)C[C@H](c1c(F)ccc(Cl)c1F)C2 [Example 262, (S)-3-(6-(3-chloro-2,6-difluorophenyl)-2-methyl-3-thioxo-2,5,6,7-tetrahydro-3H-pyrrolo[1,2-c]imidazol-1-yl)propanamide] | 82.6 % of control | 70.1 % of control | – | –
17 | Cn1c(CCC(N)=O)c2n(c1=S)C[C@@H](c1c(F)cccc1F)C2 [Example 263, (R)-3-(6-(2,6-difluorophenyl)-2-methyl-3-thioxo-2,5,6,7-tetrahydro-3H-pyrrolo[1,2-c]imidazol-1-yl)propanamide] | 103.3 % of control | 87.1 % of control | – | –
